Calls of active or inactive are those of the source. No cut-off for these calls is given here. Where a SMILES comes first, the peptide text is derived from it.
Legend:
[1] = target: Frizzled-2 (Homo sapiens) (UniProt Q14332); test: Antagonist activity at Wnt3a-stimulated frizzled-2 (unknown origin) expressed in human HEK293superTOP flash cells at 10 nM incubated for 24 hrs by luciferase reporter gene assay; type: functional, cell-based; details: HEK293
[2] = target: Frizzled-2 (Homo sapiens) (UniProt Q14332); test: Antagonist activity at Wnt3a-stimulaed frizzled-2 (unknown origin) expressed in human HEK293superTOP flash cells at 1 nM incubated for 24 hrs by luciferase reporter gene assay (reference value: 0%); type: functional, cell-based
[3] = target: Frizzled-1 (Homo sapiens) (UniProt Q9UP38); test: Antagonist activity at Wnt3a-stimulated frizzled-1 (unknown origin) expressed in human HEK293superTOP flash cells at 10 nM incubated for 24 hrs by luciferase reporter gene assay; type: functional, cell-based; details: HEK293
Chain of Frizzled-1 (Homo sapiens) (Q9UP38 70-647 limits assumed): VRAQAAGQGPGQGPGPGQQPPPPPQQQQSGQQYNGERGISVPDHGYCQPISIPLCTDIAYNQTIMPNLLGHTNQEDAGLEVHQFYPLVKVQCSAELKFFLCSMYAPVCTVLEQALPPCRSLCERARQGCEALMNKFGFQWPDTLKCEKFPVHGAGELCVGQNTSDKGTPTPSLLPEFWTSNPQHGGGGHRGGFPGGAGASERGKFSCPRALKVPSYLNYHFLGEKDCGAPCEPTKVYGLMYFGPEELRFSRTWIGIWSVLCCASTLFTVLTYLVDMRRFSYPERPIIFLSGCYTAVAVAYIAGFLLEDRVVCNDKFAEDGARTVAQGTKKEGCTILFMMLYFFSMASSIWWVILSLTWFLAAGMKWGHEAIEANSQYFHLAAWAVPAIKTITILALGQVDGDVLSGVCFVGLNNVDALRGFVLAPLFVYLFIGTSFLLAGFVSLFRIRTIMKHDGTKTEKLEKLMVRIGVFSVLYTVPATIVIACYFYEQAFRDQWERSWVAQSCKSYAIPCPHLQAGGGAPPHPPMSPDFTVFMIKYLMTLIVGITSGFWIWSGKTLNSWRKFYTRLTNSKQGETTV

[4] = target: Frizzled-1 (Rattus norvegicus) (UniProt Q08463); test: Antagonist activity at Wnt3a-stimulated rat frizzled-1 expressed in African green monkey COS7 cells up to 10 uM incubated for 24 hrs by luciferase reporter gene assay; type: cell-based; details: dose microM <=10, time 24.0 hrs
Chain of Frizzled-1 (Rattus norvegicus) (Q08463 whole entry): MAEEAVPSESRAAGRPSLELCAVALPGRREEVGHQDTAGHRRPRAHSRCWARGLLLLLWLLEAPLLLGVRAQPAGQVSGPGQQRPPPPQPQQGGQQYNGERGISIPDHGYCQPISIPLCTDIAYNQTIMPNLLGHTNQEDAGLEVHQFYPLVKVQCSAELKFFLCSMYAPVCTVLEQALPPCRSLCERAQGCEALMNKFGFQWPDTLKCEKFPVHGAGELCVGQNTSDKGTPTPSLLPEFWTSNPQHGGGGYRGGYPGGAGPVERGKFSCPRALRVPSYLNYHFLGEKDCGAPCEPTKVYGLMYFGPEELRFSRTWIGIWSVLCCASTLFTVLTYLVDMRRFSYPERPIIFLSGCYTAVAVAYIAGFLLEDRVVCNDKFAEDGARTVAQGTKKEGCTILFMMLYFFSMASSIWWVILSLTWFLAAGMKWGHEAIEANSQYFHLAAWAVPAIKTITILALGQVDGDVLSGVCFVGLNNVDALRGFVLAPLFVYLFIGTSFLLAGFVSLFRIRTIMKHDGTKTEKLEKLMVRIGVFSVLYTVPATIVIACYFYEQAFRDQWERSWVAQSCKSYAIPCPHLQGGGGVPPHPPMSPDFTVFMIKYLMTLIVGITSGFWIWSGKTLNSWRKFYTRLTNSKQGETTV

[5] = target: Frizzled-2 (Rattus norvegicus) (UniProt Q08464); test: Antagonist activity at Wnt3a-stimulated rat frizzled-2 expressed in African green monkey COS7 cells up to 10 uM incubated for 24 hrs by luciferase reporter gene assay; type: cell-based; details: dose microM <=10, time 24.0 hrs
Chain of Frizzled-2 (Rattus norvegicus) (Q08464 29-570 limits assumed): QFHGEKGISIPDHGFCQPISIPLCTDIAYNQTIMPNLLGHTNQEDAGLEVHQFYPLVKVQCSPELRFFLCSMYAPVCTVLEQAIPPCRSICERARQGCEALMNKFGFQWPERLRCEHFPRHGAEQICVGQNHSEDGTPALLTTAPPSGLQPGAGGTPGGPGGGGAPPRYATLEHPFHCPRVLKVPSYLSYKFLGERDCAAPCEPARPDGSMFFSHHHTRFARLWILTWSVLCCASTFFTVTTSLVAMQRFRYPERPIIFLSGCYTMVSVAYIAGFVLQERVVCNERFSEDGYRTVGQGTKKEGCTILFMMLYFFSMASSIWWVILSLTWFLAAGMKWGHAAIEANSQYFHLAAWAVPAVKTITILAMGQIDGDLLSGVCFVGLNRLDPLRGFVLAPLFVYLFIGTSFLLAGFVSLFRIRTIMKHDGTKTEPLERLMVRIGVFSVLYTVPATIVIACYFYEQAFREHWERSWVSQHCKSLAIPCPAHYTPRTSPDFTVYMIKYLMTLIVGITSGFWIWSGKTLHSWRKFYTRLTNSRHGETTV

[6] = target: Frizzled-2 (Rattus norvegicus) (UniProt Q08464); test: Antagonist activity at Wnt3a-stimulated rat frizzled-2 expressed in […] cells up to 10 uM incubated for 24 hrs by luciferase reporter gene assay; type: cell-based; details: dose microM <=10, time 24.0 hrs
[7] = target: Frizzled-1 (Rattus norvegicus) (UniProt Q08463); test: Antagonist activity at Wnt3a-stimulated rat frizzled-1 expressed in CHO cells up to 10 uM incubated for 24 hrs by luciferase reporter gene assay; type: cell-based; details: dose microM <=10, time 24.0 hrs
[8] = target: Frizzled-1 (Homo sapiens) (UniProt Q9UP38); test: Antagonist activity at Wnt3a-stimulaed frizzled-1 (unknown origin) expressed in human HEK293superTOP flash cells at 1 nM incubated for 24 hrs by luciferase reporter gene assay (reference value: 0%); type: functional, cell-based

Chain of Frizzled-2 (Homo sapiens) (Q14332 24-565 limits assumed): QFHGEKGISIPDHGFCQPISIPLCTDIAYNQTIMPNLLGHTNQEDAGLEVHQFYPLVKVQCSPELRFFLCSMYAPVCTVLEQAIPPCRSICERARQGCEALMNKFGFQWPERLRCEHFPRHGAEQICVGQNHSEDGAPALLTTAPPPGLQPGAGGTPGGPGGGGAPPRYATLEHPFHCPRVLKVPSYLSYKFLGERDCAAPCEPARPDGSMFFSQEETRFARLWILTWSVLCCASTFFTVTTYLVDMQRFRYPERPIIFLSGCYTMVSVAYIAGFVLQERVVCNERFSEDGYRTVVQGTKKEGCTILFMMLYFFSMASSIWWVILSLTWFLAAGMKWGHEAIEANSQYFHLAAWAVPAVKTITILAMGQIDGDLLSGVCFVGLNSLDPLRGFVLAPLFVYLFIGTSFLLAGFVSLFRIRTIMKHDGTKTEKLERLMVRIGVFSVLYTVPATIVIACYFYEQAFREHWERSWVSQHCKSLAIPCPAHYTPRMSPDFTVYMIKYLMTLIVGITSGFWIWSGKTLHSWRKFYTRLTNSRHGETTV

CSCC[C@H](NC(=O)CNC(=O)[C@H](CCC(=O)O)NC(=O)[C@H](CO)NC(=O)[C@@H](NC(=O)[C@H](CCCCN)NC(=O)[C@H](C)NC(=O)[C@H](CS)NC(C)=O)[C@@H](C)O)C(=O)N[C@@H](CC(=O)O)C(=O)NCC(=O)N[C@@H](CS)C(=O)N[C@@H](CCC(=O)O)C(=O)N[C@@H](CC(C)C)C(N)=O (Ac-CAKTSEGMDGCEL-NH2)
inhibition [1]: inactive | inhibition ([2]; HEK293, filed as antagonist): 79.5% | inhibition [3]: inactive | inhibition [4]: inactive | inhibition [5]: inactive | inhibition [6]: inactive | inhibition [7]: inactive | inhibition ([8]; HEK293, filed as antagonist): 68%

CSCC[C@H](NC(=O)CNC(=O)[C@H](CCC(=O)O)NC(=O)[C@H](CO)NC(=O)[C@@H](NC(=O)[C@H](C)NC(=O)[C@H](CC(N)=O)NC(=O)[C@H](CS)NC(C)=O)[C@@H](C)O)C(=O)N[C@@H](CC(=O)O)C(=O)NCC(=O)N[C@@H](CS)C(=O)N[C@@H](CCC(=O)O)C(=O)N[C@@H](CC(C)C)C(N)=O (Ac-CNATSEGMDGCEL-NH2)
inhibition [1]: inactive | inhibition ([2]; HEK293, filed as antagonist): 84.9% | inhibition [3]: inactive | inhibition [4]: inactive | inhibition [5]: inactive | inhibition [6]: inactive | inhibition [7]: inactive | inhibition ([8]; HEK293, filed as antagonist): 70.8%

CSCC[C@H](NC(=O)[C@H](C)NC(=O)[C@H](CCC(=O)O)NC(=O)[C@H](CO)NC(=O)[C@H](C)NC(=O)[C@H](CCCCN)NC(=O)[C@H](CC(N)=O)NC(=O)[C@H](CS)NC(C)=O)C(=O)N[C@@H](C)C(=O)NCC(=O)N[C@@H](CS)C(=O)N[C@@H](CCC(=O)O)C(=O)N[C@@H](CC(C)C)C(N)=O (Ac-CNKASEAMAGCEL-NH2)
inhibition [1]: inactive | inhibition ([2]; HEK293): 17.5% | inhibition [3]: inactive | inhibition [4]: inactive | inhibition [5]: inactive | inhibition [6]: inactive | inhibition [7]: inactive | inhibition ([8]; HEK293): 11.2%

CSCC[C@H](NC(=O)CNC(=O)[C@H](CCC(=O)O)NC(=O)[C@H](CO)NC(=O)[C@H](C)NC(=O)[C@H](CCCCN)NC(=O)[C@H](CC(N)=O)NC(=O)[C@H](CS)NC(C)=O)C(=O)N[C@@H](CC(=O)O)C(=O)NCC(=O)N[C@@H](CS)C(=O)N[C@@H](CCC(=O)O)C(=O)N[C@@H](CC(C)C)C(N)=O (Ac-CNKASEGMDGCEL-NH2)
inhibition [1]: inactive | inhibition ([2]; HEK293, filed as antagonist): 59.4% | inhibition [3]: inactive | inhibition [4]: inactive | inhibition [5]: inactive | inhibition [6]: inactive | inhibition [7]: inactive | inhibition ([8]; HEK293): 28.1%

CSCC[C@H](NC(=O)CNC(=O)[C@H](CCC(=O)O)NC(=O)[C@H](C)NC(=O)[C@@H](NC(=O)[C@H](CCCCN)NC(=O)[C@H](CC(N)=O)NC(=O)[C@H](CS)NC(C)=O)[C@@H](C)O)C(=O)N[C@@H](CC(=O)O)C(=O)NCC(=O)N[C@@H](CS)C(=O)N[C@@H](CCC(=O)O)C(=O)N[C@@H](CC(C)C)C(N)=O (Ac-CNKTAEGMDGCEL-NH2)
inhibition [1]: inactive | inhibition ([2]; HEK293, filed as antagonist): 87.3% | inhibition [3]: inactive | inhibition [4]: inactive | inhibition [5]: inactive | inhibition [6]: inactive | inhibition [7]: inactive | inhibition ([8]; HEK293, filed as antagonist): 74.3%

CSCC[C@H](NC(=O)CNC(=O)[C@H](C)NC(=O)[C@H](CO)NC(=O)[C@@H](NC(=O)[C@H](CCCCN)NC(=O)[C@H](CC(N)=O)NC(=O)[C@H](CS)NC(C)=O)[C@@H](C)O)C(=O)N[C@@H](CC(=O)O)C(=O)NCC(=O)N[C@@H](CS)C(=O)N[C@@H](CCC(=O)O)C(=O)N[C@@H](CC(C)C)C(N)=O (Ac-CNKTSAGMDGCEL-NH2)
inhibition [1]: inactive | inhibition ([2]; HEK293, filed as antagonist): 84.7% | inhibition [3]: inactive | inhibition [4]: inactive | inhibition [5]: inactive | inhibition [6]: inactive | inhibition [7]: inactive | inhibition ([8]; HEK293, filed as antagonist): 70.8%

CSCC[C@H](NC(=O)[C@H](C)NC(=O)[C@H](CCC(=O)O)NC(=O)[C@H](CO)NC(=O)[C@@H](NC(=O)[C@H](CCCCN)NC(=O)[C@H](CC(N)=O)NC(=O)[C@H](CS)NC(C)=O)[C@@H](C)O)C(=O)N[C@@H](CC(=O)O)C(=O)NCC(=O)N[C@@H](CS)C(=O)N[C@@H](CCC(=O)O)C(=O)N[C@@H](CC(C)C)C(N)=O (Ac-CNKTSEAMDGCEL-NH2)
inhibition [1]: inactive | inhibition ([2]; HEK293, filed as antagonist): 63.1% | inhibition [3]: inactive | inhibition [4]: inactive | inhibition [5]: inactive | inhibition [6]: inactive | inhibition [7]: inactive | inhibition ([8]; HEK293, filed as antagonist): 52.6%

CC(=O)N[C@@H](CS)C(=O)N[C@@H](CC(N)=O)C(=O)N[C@@H](CCCCN)C(=O)N[C@H](C(=O)N[C@@H](CO)C(=O)N[C@@H](CCC(=O)O)C(=O)NCC(=O)N[C@@H](C)C(=O)N[C@@H](CC(=O)O)C(=O)NCC(=O)N[C@@H](CS)C(=O)N[C@@H](CCC(=O)O)C(=O)N[C@@H](CC(C)C)C(N)=O)[C@@H](C)O (Ac-CNKTSEGADGCEL-NH2)
inhibition [1]: inactive | inhibition ([2]; HEK293, filed as antagonist): 85% | inhibition [3]: inactive | inhibition [4]: inactive | inhibition [5]: inactive | inhibition [6]: inactive | inhibition [7]: inactive | inhibition ([8]; HEK293, filed as antagonist): 67.6%

CSCC[C@H](NC(=O)CNC(=O)[C@H](CCC(=O)O)NC(=O)[C@H](CO)NC(=O)[C@@H](NC(=O)[C@H](CCCCN)NC(=O)[C@H](CC(N)=O)NC(=O)[C@H](CS)NC(C)=O)[C@@H](C)O)C(=O)N[C@@H](C)C(=O)NCC(=O)N[C@@H](CS)C(=O)N[C@@H](CCC(=O)O)C(=O)N[C@@H](CC(C)C)C(N)=O (Ac-CNKTSEGMAGCEL-NH2)
inhibition [1]: inactive | inhibition ([2]; HEK293, filed as antagonist): 60.5% | inhibition [3]: inactive | inhibition [4]: inactive | inhibition [5]: inactive | inhibition [6]: inactive | inhibition [7]: inactive | inhibition ([8]; HEK293, filed as antagonist): 40.5%

CSCC[C@H](NC(=O)CNC(=O)[C@H](CCC(=O)O)NC(=O)[C@H](CO)NC(=O)[C@@H](NC(=O)[C@H](CCCCN)NC(=O)[C@H](CC(N)=O)NC(=O)[C@H](CS)NC(C)=O)[C@@H](C)O)C(=O)N[C@@H](CC(=O)O)C(=O)N[C@@H](C)C(=O)N[C@@H](CS)C(=O)N[C@@H](CCC(=O)O)C(=O)N[C@@H](CC(C)C)C(N)=O (Ac-CNKTSEGMDACEL-NH2)
inhibition [1]: inactive | inhibition ([2]; HEK293, filed as antagonist): 83.3% | inhibition [3]: inactive | inhibition [4]: inactive | inhibition [5]: inactive | inhibition [6]: inactive | inhibition [7]: inactive | inhibition ([8]; HEK293, filed as antagonist): 69.9%

CSCC[C@H](NC(=O)CNC(=O)[C@H](CCC(=O)O)NC(=O)[C@H](CO)NC(=O)[C@@H](NC(=O)[C@H](CCCCN)NC(=O)[C@H](CC(N)=O)NC(=O)[C@H](CS)NC(C)=O)[C@@H](C)O)C(=O)N[C@@H](CC(=O)O)C(=O)NCC(=O)N[C@@H](CS)C(=O)N[C@@H](C)C(=O)N[C@@H](C)C(N)=O (Ac-CNKTSEGMDGCAA-NH2)
inhibition [1]: inactive | inhibition ([2]; HEK293, filed as antagonist): 74.3% | inhibition [3]: inactive | inhibition [4]: inactive | inhibition [5]: inactive | inhibition [6]: inactive | inhibition [7]: inactive | inhibition ([8]; HEK293, filed as antagonist): 66.8%

CSCC[C@H](NC(=O)CNC(=O)[C@H](CCC(=O)O)NC(=O)[C@H](CO)NC(=O)[C@@H](NC(=O)[C@H](CCCCN)NC(=O)[C@H](CC(N)=O)NC(=O)[C@H](CS)NC(C)=O)[C@@H](C)O)C(=O)N[C@@H](CC(=O)O)C(=O)NCC(=O)N[C@@H](CS)C(=O)N[C@@H](C)C(=O)N[C@@H](CC(C)C)C(N)=O (Ac-CNKTSEGMDGCAL-NH2)
inhibition [1]: inactive | inhibition ([2]; HEK293, filed as antagonist): 85.5% | inhibition [3]: inactive | inhibition [4]: inactive | inhibition [5]: inactive | inhibition [6]: inactive | inhibition [7]: inactive | inhibition ([8]; HEK293, filed as antagonist): 65.9%

CSCC[C@H](NC(=O)CNC(=O)[C@H](CCC(=O)O)NC(=O)[C@H](CO)NC(=O)[C@@H](NC(=O)[C@H](CCCCN)NC(=O)[C@H](CC(N)=O)NC(=O)[C@H](CS)NC(C)=O)[C@@H](C)O)C(=O)N[C@@H](CC(=O)O)C(=O)NCC(=O)N[C@@H](CS)C(=O)N[C@@H](CCC(=O)O)C(=O)N[C@@H](C)C(N)=O (Ac-CNKTSEGMDGCEA-NH2)
inhibition [1]: inactive | inhibition ([2]; HEK293, filed as antagonist): 86.5% | inhibition [3]: inactive | inhibition [4]: inactive | inhibition [5]: inactive | inhibition [6]: inactive | inhibition [7]: inactive | inhibition ([8]; HEK293, filed as antagonist): 65.9%

CC[C@H](C)[C@H](NC(=O)CNC(=O)[C@H](Cc1cnc[nH]1)NC(=O)[C@H](CO)NC(=O)[C@H](CO)NC(=O)[C@@H](NC(=O)[C@H](CC(N)=O)NC(=O)[C@@H](N)CS)C(C)C)C(=O)N[C@@H](CC(=O)O)C(=O)NCC(=O)N[C@@H](CS)C(=O)N[C@@H](CC(=O)O)C(=O)N[C@@H](CC(C)C)C(=O)O (H-CNVSSHGIDGCDL-OH)
inhibition [1]: inactive | inhibition ([2]; HEK293, filed as antagonist): 62.4% | inhibition [3]: inactive | inhibition [4]: inactive | inhibition [5]: inactive | inhibition [6]: inactive | inhibition [7]: inactive | inhibition ([8]; HEK293, filed as antagonist): 45.3%

Ac-ANKTSEGMDGCEL-NH2
inhibition [1]: inactive | inhibition ([2]; HEK293, filed as antagonist): 82.6% | inhibition [3]: inactive | inhibition [4]: inactive | inhibition [5]: inactive | inhibition [6]: inactive | inhibition [7]: inactive | inhibition ([8]; HEK293, filed as antagonist): 70.8%
